Assay [1] concerns the target T1, Recombinant Human DPP4 (Homo sapiens, UniProt P27487).
T1 construct: purchased Sino Biological 10688-HNCH-10
Put plainly: Kinetic evaluation of substrates. The format is biochemical. Particulars: for SI (selectivity index, coefficient of the proteases kcat/Km), FAPα vs DPP4: kcat/KM FAPα over kcat/KM DPP4. How it is done:
(§1) Fluorogenic Substrate Cleavage Assay
(§2) The following proteases were used for the activity assay: Recombinant Human FAPα Protein, CF (R&D Systems, Catalog No.: 3715-SE-010), Recombinant Human Prolyl Oligopeptidase/PREP Protein, CF (R&D Systems, Catalog No.: 4308-SE-010). Recombinant Human DPP9 Protein, CF (R&D Systems, Catalog No.: 5419-SE-010). Recombinant Human DPP4 Protein (Sino Biological, Catalog No.: 10688-HNCH-10). The buffers used for the activity assay were: FAPα - 50 mM Tris, 1 M NaCl, 1 mg/mL BSA, pH 7.5, PREP- 25 mM Tris, 250 mM NaCl, 2.5 mM DTT, pH 7.5 (DTT was freshly added immediately before use), DPP9- 25 mM Tris, pH 7.5, DPP4- 25 mM Tris, pH
(§3) 7.5. The following commercial substrates were used: zGP-AMC (Bachem,Catalog No.: […]
(§4) conducted in Greiner Bio-One black microplates of 384 wells and polystyrene F-bottom (Catalog No.: 784076). All compounds were dissolved in DMSO at a concentration of 10 mM and then diluted into the respective buffer to the desired final concentration. The protease was added to the specified concentration before the fluorescence measurements. For fluorescence measurements, 2 μL of substrate was further diluted into 6 μL of buffer, followed by addition of 2 μL of enzyme in buffer. For no enzyme controls 2 μL of substrate was diluted into 8 μL of buffer.
(§5) The fluorescence was measured using a Cytation 3 plate reader (BioTek). All experiments have at least three technical replicates. All assays were conducted at 37°C for a minimum of 90 min, unless otherwise noted. Fluorescence measurements were performed at ex/em, 355/460 nm for ACC substrates. The substrates velocity was quantified by calculating the slope of the linear phase of the reaction as relative fluorescence units (RFU) per min.
(§6) Kinetic evaluation of substrates
(§7) To order to determine the kcat/KM, the previously indicated proteases were tested under their corresponding buffer conditions. Substrates were serially diluted in water, and 2 µL of each dilution was added to 6 µL of assay buffer in a 384-well plate. The plate was briefly centrifuged to ensure proper mixing and to eliminate air bubbles. Fluorescence measurements were initiated by adding 2 µL of the protease solution (prepared in activity buffer) to each well, yielding a final volume of 10 µL. Reactions were monitored at 37 °C for 60 minutes using a plate reader set to excitation/emission wavelengths of 355/460 nm. Control wells without enzyme contained 8 µL of assay buffer, instead of enzyme, and 2 µL of substrate. All measurements were performed in at least triplicate. The initial linear portion of each fluorescence progress curve was used to calculate initial reaction velocities (RFU/min). Calibration curves using free AMC were generated under the corresponding buffer and assay conditions to allow extrapolation of RFU values to µM concentrations. Michaelis-Menten kinetic parameters K M, kcat and kcat/,KM were determined using […]
(§8) GraphPad Prism version 10.4.1. […]
(§9) determined due to poor model fit. […]

The target of assay [2] is T2, Recombinant Human Prolyl Oligopeptidase/PREP (Homo sapiens, UniProt P48147).
T2 construct: purchased R&D Systems 4308-SE-010
T2 sequence (P48147 1-710): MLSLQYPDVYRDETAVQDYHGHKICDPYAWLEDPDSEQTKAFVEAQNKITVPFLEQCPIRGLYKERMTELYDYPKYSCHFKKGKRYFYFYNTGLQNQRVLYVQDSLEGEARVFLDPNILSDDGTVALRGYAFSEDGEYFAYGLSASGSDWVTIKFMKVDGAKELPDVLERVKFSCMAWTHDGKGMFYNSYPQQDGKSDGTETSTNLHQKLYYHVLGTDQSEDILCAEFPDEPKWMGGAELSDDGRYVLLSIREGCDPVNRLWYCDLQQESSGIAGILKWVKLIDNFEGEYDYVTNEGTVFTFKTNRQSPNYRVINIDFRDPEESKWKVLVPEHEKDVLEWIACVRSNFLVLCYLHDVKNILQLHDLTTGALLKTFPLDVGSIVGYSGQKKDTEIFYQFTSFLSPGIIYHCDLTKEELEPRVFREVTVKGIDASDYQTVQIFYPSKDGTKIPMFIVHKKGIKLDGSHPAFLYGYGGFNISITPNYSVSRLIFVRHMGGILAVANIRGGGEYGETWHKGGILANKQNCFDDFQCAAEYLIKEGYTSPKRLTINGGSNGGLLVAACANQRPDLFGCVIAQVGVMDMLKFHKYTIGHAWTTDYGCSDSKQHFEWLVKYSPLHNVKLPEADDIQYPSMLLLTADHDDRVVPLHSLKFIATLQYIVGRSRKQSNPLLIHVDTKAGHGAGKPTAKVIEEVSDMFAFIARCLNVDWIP
As to the kind of experiment: Kinetic evaluation of substrates. The format is biochemical. The note with it: for SI (selectivity index, coefficient of the proteases kcat/Km), FAPα vs PREP: kcat/KM FAPα over kcat/KM PREP. How it is done:
as §1, §2, §3, §4, §5, §6, §7, §8, §9

[3] abbreviates: 3 nM DPP4, 37 °C, 60 min, Michaelis-Menten fit, triplicates.
[4] abbreviates: 3 nM DPP4, 37 °C, 60 min, Michaelis-Menten fit, triplicates, ± SD.
[5] abbreviates: 3 nM PREP, 37 °C, 60 min, Michaelis-Menten fit, triplicates.

Molecules are shown by their SMILES. *1 amine or outer side, *2 acyl side, *3 side chain or, on linkers, in order; H or OH if unused. Where a SMILES comes first, the peptide text is derived from it. Bridges are numbered along the chain shown (N, C = ends). The star is where a group is joined. X1 = NC(=O)Cc1cc(=O)oc2cc(NC(=O)[C@@H]3CCCN3C(=O)Cn3nc(C[*:1])cc3C[*:2])ccc12; X2 = NC(=O)Cc1cc(=O)oc2cc(NC(=O)[C@@H]3CCCN3C(=O)Cn3nc(C[*:2])cc3C[*:1])ccc12; AMC = Cc1cc(=O)oc2cc(N*)ccc12; Cbz = O=C(OCc1ccccc1)*

Results on four compounds are retold here after article PMC12314892, “Macrocyclic Phage Display for Identification of Selective Protease Substrates” (Journal of the American Chemical Society, 2025).

T1 sequence (P27487 whole entry): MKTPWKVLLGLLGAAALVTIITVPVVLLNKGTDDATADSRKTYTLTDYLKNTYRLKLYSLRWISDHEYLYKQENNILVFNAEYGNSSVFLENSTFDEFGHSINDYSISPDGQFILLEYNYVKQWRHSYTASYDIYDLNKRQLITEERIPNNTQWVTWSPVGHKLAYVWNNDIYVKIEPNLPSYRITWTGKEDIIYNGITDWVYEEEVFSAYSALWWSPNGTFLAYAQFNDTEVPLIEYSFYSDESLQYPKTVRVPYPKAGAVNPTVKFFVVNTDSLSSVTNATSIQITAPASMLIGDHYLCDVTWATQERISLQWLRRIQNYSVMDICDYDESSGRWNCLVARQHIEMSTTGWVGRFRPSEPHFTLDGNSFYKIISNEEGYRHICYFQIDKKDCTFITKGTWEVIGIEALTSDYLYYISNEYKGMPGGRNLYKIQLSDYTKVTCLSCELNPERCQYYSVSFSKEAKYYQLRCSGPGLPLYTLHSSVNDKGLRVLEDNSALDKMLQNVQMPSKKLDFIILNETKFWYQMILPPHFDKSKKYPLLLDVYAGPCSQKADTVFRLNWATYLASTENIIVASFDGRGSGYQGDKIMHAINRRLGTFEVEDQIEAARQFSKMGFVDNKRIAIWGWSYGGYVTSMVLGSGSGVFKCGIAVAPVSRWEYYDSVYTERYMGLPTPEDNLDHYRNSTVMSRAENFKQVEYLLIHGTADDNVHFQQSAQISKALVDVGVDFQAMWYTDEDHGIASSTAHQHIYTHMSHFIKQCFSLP

The term kcat/KM denotes the second-order rate constant that governs catalysis at low substrate concentration. For orientation: kcat means the number of substrate molecules converted per active site and unit of time at saturation. As for `CC(C)[C@@H]1NC(=O)[C@@H](N)CSCc2cc(n(CC(=O)N3CCC[C@H]3C(=O)Nc3ccc4c(CC(N)=O)cc(=O)oc4c3)n2)CSC[C@@H](C(=O)NCC(N)=O)NC(=O)[C@H](CC(=O)O)NC(=O)[C@H](C)NC(=O)[C@H](CC(N)=O)NC(=O)[C@H](CCC(N)=O)NC(=O)[C@H](Cc2ccccc2)NC(=O)[C@H](CO)NC1=O` [FAP-33.2A6] (H-CVSFQNADCG-NH2; linker 1-9 via X1; N-terminus assumed), the kcat/KM in assay [1] (setting [3]) stood at 5168 M⁻¹ s⁻¹. Moreover, the kcat in assay [1] (setting [4]) is reported as 0.460 ± 0.018 s⁻¹. In assay [1], the “SI (selectivity index, coefficient of the proteases kcat/Km), FAPα vs DPP4” value is on record as 6. Further, in assay [2] (3 nM PREP, substrate inhibition, 37 °C), the Ki was found to be 34.4 µM. Also, the “SI (selectivity index, coefficient of the proteases kcat/Km), FAPα vs PREP” value in assay [2] is listed as “FAPα >>>PREP”.
For `CC(C)C[C@@H]1NC(=O)[C@H](CC(N)=O)NC(=O)[C@H](CCC(N)=O)NC(=O)[C@H](Cc2ccccc2)NC(=O)[C@H](CO)NC(=O)[C@H](C(C)C)NC(=O)[C@@H](N)CSCc2cc(nn2CC(=O)N2CCC[C@H]2C(=O)Nc2ccc3c(CC(N)=O)cc(=O)oc3c2)CSC[C@@H](C(=O)NCC(N)=O)NC(=O)[C@H](CC(=O)O)NC1=O` [FAP-33.2] (H-CVSFQNLDCG-NH2; linker 1-9 via X2; N-terminus assumed), the “SI (selectivity index, coefficient of the proteases kcat/Km), FAPα vs DPP4” value in assay [1] is “FAPα >>>DPP4”. Further, the “SI (selectivity index, coefficient of the proteases kcat/Km), FAPα vs PREP” value in assay [2] is “FAPα >>>PREP”.
The term Km denotes the substrate concentration at which the rate is half of its maximum. Turning to `Cc1cc(=O)oc2cc(NC(=O)[C@@H]3CCCN3C(=O)CN)ccc12` [GP-AMC] (H-Gly-Pro-{AMC}), the Km in assay [1] (3 nM DPP4, 25 mM Tris, pH 7.5, 37 °C, 60 min, ex/em 355/460 nm, Michaelis-Menten fit, triplicates, ± SD) amounted to 52 ± 4 µM. The specificity constant (kcat/KM) in assay [1] (setting [3]) came to 380000 M⁻¹ s⁻¹. In assay [1] (setting [4]), the kcat came out at 19.9 ± 0.6 s⁻¹. Besides, the “SI (selectivity index, coefficient of the proteases kcat/Km), DPP4 vs PREP” value in assay [2] (kcat/KM DPP4 over kcat/KM PREP) is listed as “DPP4>>>PREP”.
As for `Cc1cc(=O)oc2cc(NC(=O)[C@@H]3CCCN3C(=O)CNC(=O)OCc3ccccc3)ccc12` [zGP-AMC] (Cbz-Gly-Pro-{AMC}), in assay [2] (3 nM PREP, 25 mM Tris, 250 mM NaCl, 2.5 mM DTT, pH 7.5, 37 °C, 60 min, triplicates, ± SD, FAP33.2 and FAP33.2A6 showed substrate inhibition), the Km worked out at 161 ± 91 µM. Further, in assay [2] (setting [5]), the catalytic constant (kcat) came out at 113.05 s⁻¹ and the catalytic efficiency (kcat/KM) stood at 633723 M⁻¹ s⁻¹. Further, the “SI (selectivity index, coefficient of the proteases kcat/Km), FAPα vs PREP” value in assay [2] was 0.24.
